Where a SMILES comes first, the peptide text is derived from it. Bridges are numbered along the chain shown (N, C = ends). [ ]: non-standard residue; d: D form. The star is where a group is joined. 1Nal = N[C@@H](Cc1cccc2ccccc12)C(=O)O; Acm = CC(=O)NC*
Columns and labels:
[1] = 24 hours post-injection
Method: (§1) S1 and S1PS5 peptides derived from SOCS1 KIR domain (residues 53-68) conjugated with the cell penetrating sequences at N-terminal were synthesized by solid phase method following the Fmoc strategy, purified by preparative reverse phase-HPLC and lyophilized. Peptides were dissolved in 1% DMSO in saline solution (S1) and H2O (S1PS5), then filter-sterilized and stored at -80°C before use. For biodistribution studies, peptides were labelled with rhodamine or carboxytetramethylrhodamine (TAMRA) at N-terminal. For stability assays, peptides were incubated at 37°C with 25% foetal bovine serum (FBS). At selected times, 80 µL aliquots were taken, precipitated with 15% trichloroacetic acid, and further analysed by reverse phase HPLC with UV detector.

[2] = in vitro
Method: as §1

[3] = system: mouse VSMC; assay: cellular uptake of TAMRA-conjugated S1PS5 peptides (confocal microscopy); format: cell-based; conditions: for degraded in cells: at 24 hours, TAMRA fluorescence intensity; for efficient uptake after: quantification of peptide internalization by TAMRA fluorescence intensity

Compound	localization in aortic tissue (confocal analysis) [1]	metabolised at 20 h ([2]; 25% foetal bovine serum)	remaining at 42 h ([2]; 25% foetal bovine serum)	degraded in cells [3]	efficient uptake after [3]	degradation rate ([2]; 25% FBS, 37°C, at 17-20 hours)
CC(=O)NCSC[C@@H]1NC(=O)[C@H]([C@@H](C)O)NC(=O)[C@@H](NC(=O)CNC(=O)CNC(=O)[C@H](CCC(N)=O)NC(=O)[C@@H]2CCCN2C(=O)[C@@H]2CCCN2C(=O)[C@H](CCCNC(=N)N)NC(=O)[C@H](CCCNC(=N)N)NC(=O)[C@H](CCCNC(=N)N)NC(=O)[C@H](CCC(N)=O)NC(=O)[C@H](CCCNC(=N)N)NC(=O)[C@H](CCCNC(=N)N)NC(=O)[C@H](CCCCN)NC(=O)[C@H](CCCCN)NC(=O)[C@H](CCCNC(=N)N)NC(=O)CN)CC(=O)NCCCC[C@@H](C(=O)N[C@@H](Cc2c[nH]cn2)C(=O)O)NC(=O)[C@H](CCCNC(=N)N)NC(=O)[C@H](Cc2cccc3ccccc23)NC(=O)[C@H]([C@@H](C)O)NC(=O)[C@H](CCC(N)=O)NC(=O)[C@H](CCCNC(=N)N)NC1=O [internal cyclic S1PS5 Nal1, GRKKRRQRRRPPQGGDTCAcmRQTNal1RKH] (H-GRKKRRQRRRPPQGGDTC(Acm)RQT[1Nal]RKH-OH; lactam 16-24)	detected	~20%	~40%	40%	~2 h	–
CC(=O)NCSC[C@@H]1NC(=O)[C@H]([C@@H](C)O)NC(=O)[C@@H](NC(=O)CNC(=O)CNC(=O)[C@H](CCC(N)=O)NC(=O)[C@@H]2CCCN2C(=O)[C@@H]2CCCN2C(=O)[C@H](CCCNC(=N)N)NC(=O)[C@H](CCCNC(=N)N)NC(=O)[C@H](CCCNC(=N)N)NC(=O)[C@H](CCC(N)=O)NC(=O)[C@H](CCCNC(=N)N)NC(=O)[C@H](CCCNC(=N)N)NC(=O)[C@H](CCCCN)NC(=O)[C@H](CCCCN)NC(=O)[C@H](CCCNC(=N)N)NC(=O)CN)CC(=O)NCCCC[C@@H](C(=O)N[C@@H](Cc2c[nH]cn2)C(=O)O)NC(=O)[C@H](CCCNC(=N)N)NC(=O)[C@H](Cc2ccccc2)NC(=O)[C@H]([C@@H](C)O)NC(=O)[C@H](CCC(N)=O)NC(=O)[C@H](CCCNC(=N)N)NC1=O [internal cyclic S1PS5, GRKKRRQRRRPPQGGDTCAcmRQTFRKH] (H-GRKKRRQRRRPPQGGDTC(Acm)RQTFRKH-OH; lactam 16-24)	–	~40%	–	almost completely degraded	~2 h	–
CC(=O)NCSC[C@H](NC(=O)[C@@H](NC(=O)[C@H](CC(=O)O)NC(=O)CNC(=O)CNC(=O)[C@H](CCC(N)=O)NC(=O)[C@@H]1CCCN1C(=O)[C@@H]1CCCN1C(=O)[C@H](CCCNC(=N)N)NC(=O)[C@H](CCCNC(=N)N)NC(=O)[C@H](CCCNC(=N)N)NC(=O)[C@H](CCC(N)=O)NC(=O)[C@H](CCCNC(=N)N)NC(=O)[C@H](CCCNC(=N)N)NC(=O)[C@H](CCCCN)NC(=O)[C@H](CCCCN)NC(=O)[C@H](CCCNC(=N)N)NC(=O)CN)[C@@H](C)O)C(=O)N[C@@H](CCCNC(=N)N)C(=O)N[C@@H](CCC(N)=O)C(=O)N[C@H](C(=O)N[C@@H](Cc1ccccc1)C(=O)N[C@@H](CCCNC(=N)N)C(=O)N[C@@H](CO)C(=O)N[C@@H](Cc1c[nH]cn1)C(=O)O)[C@@H](C)O [linear S1PS5, GRKKRRQRRRPPQGGDTCAcmRQTFRSH] (H-GRKKRRQRRRPPQGGDTC(Acm)RQTFRSH-OH)	–	–	–	–	–	40%
